We go through eleven compounds from US7772245B2, “Inhibitors of histone deacetylase” (Miikana Therapeutics, Inc., priority 2005, dated 2010).

Assay [1] has as its system HCT116 cells. Briefly: Whole cell cytotoxicity assay: Sulforhodamine B. The class given is cell-based. The note with it: Homo sapiens, HCT-116; 100 μM compound; 48 hours incubation with drug; Sulforhodamine B staining; read-out: % Inhibition of HCT116 cell growth @ 100 μM. In general terms: Sulforhodamine B stains cellular protein and so reports cell mass.
For assay [2], the system named is HDAC. Briefly: In vitro fluorescent histone deacetylase assay (Biomol HDAC fluorescent activity kit, HeLa cell nuclear extract). As to conditions: 100 μM compound; HeLa cell nuclear extract as source of HDAC activity; 50 μM substrate, 10 min at room temperature. The class given is biochemical. Put shortly: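 HeLa nuclear extract as HDAC source with fluorogenic substrate at 50 μM final, reacting 10 min at room temperature before stop. Compounds serially diluted in assay buffer, final DMSO ≤2%; fluorescence read at ex 355 nm / em 460 nm.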

By inhibition is commonly meant the share of the control response that was lost under treatment.

As to `CC(=O)n1c2c(c3cc(C)ccc31)CN(c1ncc(C(=O)NO)cn1)CC2` [Example 74, N-hydroxy-2-{5-acetyl-8-methyl-1,3,4,5-tetrahydro-2H-pyrido[4,3-b]indol-2-yl}pyrimidine-5-carboxamide], the inhibition at 100 µM in assay [1] was 93.6%. Besides, the “% Inhibition of HDAC @ 100 μM” value in assay [2] came out at 99.1%.

As for `Cc1ccc2c(c1)C1CN(c3ncc(C(=O)NO)cn3)CCC1N2` (stereo not shown) [Example 75, N-hydroxy-2-(8-methyl-1,3,4,4a,5,9b-hexahydro-2H-pyrido[4,3-b]indol-2-yl)pyrimidine-5-carboxamide], the inhibition at 100 µM in assay [1] was found to be 98.4%. Besides, the “% Inhibition of HDAC @ 100 μM” value in assay [2] amounted to 99.9%.

Turning to `Nc1ccc2[nH]c3c(c2c1)CN(c1ncc(C(=O)NO)cn1)CC3` [Example 76, N-hydroxy-2-(8-amino-1,3,4,5-tetrahydro-2H-pyrido[4,3-b]indol-2-yl)pyrimidine-5-carboxamide], in assay [1], the inhibition at 100 µM stood at 98.9%. In assay [2], the “% Inhibition of HDAC @ 100 μM” value came out at 100%.

As to `CS(=O)(=O)Nc1ccc2[nH]c3c(c2c1)CN(c1ncc(C(=O)NO)cn1)CC3` [Example 78, N-hydroxy-2-(8-(N-methylsulfonamido)-1,3,4,5-tetrahydro-2H-pyrido[4,3-b]indol-2-yl)pyrimidine-5-carboxamide], the inhibition at 100 µM in assay [1] stood at 85.1%. The “% Inhibition of HDAC @ 100 μM” value in assay [2] is on record as 99.9%.

In the case of `C[S+]([O-])c1cccc(-c2ccc3[nH]c4c(c3c2)CN(c2ncc(C(=O)NO)cn2)CC4)c1` (stereo not shown) [Example 79, N-hydroxy-2-{8-[3-(methylsulfinyl)phenyl]-1,3,4,5-tetrahydro-2H-pyrido[4,3-b]indol-2-yl}pyrimidine-5-carboxamide], in assay [1], the inhibition at 100 µM was found to be 95.7%. Further, the “% Inhibition of HDAC @ 100 μM” value in assay [2] is recorded as 100%.

For `CC(=O)NCc1cccc(-c2ccc3[nH]c4c(c3c2)CN(c2ncc(C(=O)NO)cn2)CC4)c1` [Example 82, N-hydroxy-2-{8-[3-(N-acetamidomethyl)phenyl]-1,3,4,5-tetrahydro-2H-pyrido[4,3-b]indol-2-yl}pyrimidine-5-carboxamide], the inhibition at 100 µM in assay [1] worked out at 97%. In addition, in assay [2], the “% Inhibition of HDAC @ 100 μM” value is reported as 99.9%.

`CS(=O)(=O)NCc1cccc(-c2ccc3[nH]c4c(c3c2)CN(c2ncc(C(=O)NO)cn2)CC4)c1` [Example 83, N-hydroxy-2-{8-[3-(N-methylsulfonamidomethyl)phenyl]-1,3,4,5-tetrahydro-2H-pyrido[4,3-b]indol-2-yl}pyrimidine-5-carboxamide]: the inhibition at 100 µM in assay [1] came out at 94.7%. The “% Inhibition of HDAC @ 100 μM” value in assay [2] is listed as 99.9%.

For `O=C(NO)c1cnc(N2CCc3[nH]c4ccc(-c5cccc(-c6nnn[nH]6)c5)cc4c3C2)nc1` [Example 84, N-hydroxy-2-{8-[3-(1H-tetrazol-5-yl)phenyl]-1,3,4,5-tetrahydro-2H-pyrido[4,3-b]indol-2-yl}pyrimidine-5-carboxamide], the inhibition at 100 µM in assay [1] worked out at 93.2%. Besides, in assay [2], the “% Inhibition of HDAC @ 100 μM” value was found to be 99.9%.

As for `Nc1cccc(-c2ccc3[nH]c4c(c3c2)CN(c2ncc(C(=O)NO)cn2)CC4)c1` [Example 86, N-hydroxy-2-{8-[3-aminophenyl]-1,3,4,5-tetrahydro-2H-pyrido[4,3-b]indol-2-yl}pyrimidine-5-carboxamide], the inhibition at 100 µM in assay [1] stood at 99.1%. Besides, in assay [2], the “% Inhibition of HDAC @ 100 μM” value came out at 100%.

Consider `CC(=O)Nc1cccc(-c2ccc3[nH]c4c(c3c2)CN(c2ncc(C(=O)NO)cn2)CC4)c1` [Example 87, N-hydroxy-2-{8-[3-(N-acetamido)phenyl]-1,3,4,5-tetrahydro-2H-pyrido[4,3-b]indol-2-yl}pyrimidine-5-carboxamide], for which the inhibition at 100 µM in assay [1] amounted to 83.1%. For the same compound, the “% Inhibition of HDAC @ 100 μM” value in assay [2] was 100%.

In the case of `O=C(NO)c1cnc(N2CCc3[nH]c4ccc(-c5cccc(CN6CCOCC6)c5)cc4c3C2)nc1` [Example 90, N-hydroxy-2-{8-[3-(morpholin-4-ylmethyl)phenyl]-1,3,4,5-tetrahydro-2H-pyrido[4,3-b]indol-2-yl}pyrimidine-5-carboxamide], the inhibition at 100 µM in assay [1] was 93.1%. The “% Inhibition of HDAC @ 100 μM” value in assay [2] was 99.8%.
